How the values were obtained:
[1] = xn = mol fraction of the nth substance listed; details: 101 kPa, Liquid; for viscosity: Capillary tube (Ostwald / Ubbelohde) method; for mass density: Vibrating tube method
[2] = refractive index (Na D-line) (dimensionless); xn = mol fraction of the nth substance listed; details: 101 kPa, Liquid, Standard Abbe refractometry

CCC(C)(C)O [2-methylbutan-2-ol] + C1CCOC1
Details	mass density, 288.15 K [kg/m3]	mass density, 298.15 K [kg/m3]	mass density, 308.15 K [kg/m3]	refractive index, 288.15 K	refractive index, 298.15 K	refractive index, 308.15 K	viscosity, 288.15 K [mPa·s]	viscosity, 298.15 K [mPa·s]	viscosity, 308.15 K [mPa·s]
[1], x1 = 0.1028	881.2	870.63	859.92	–	–	–	0.7142	0.5079	0.4359
[1], x1 = 0.1791	873.29	862.93	852.42	–	–	–	0.895	0.5724	0.4592
[1], x1 = 0.2676	865.01	854.87	844.57	–	–	–	1.13	0.6232	0.5449
[1], x1 = 0.3601	857.15	847.22	837.11	–	–	–	1.365	0.7532	0.6428
[1], x1 = 0.45	850.2	840.46	830.51	–	–	–	1.63	0.8859	0.747
[1], x1 = 0.5402	843.79	834.19	824.37	–	–	–	1.968	1.064	0.8887
[1], x1 = 0.6295	837.94	828.48	818.76	–	–	–	2.399	1.288	1.055
[1], x1 = 0.7058	833.16	823.78	814.12	–	–	–	2.849	1.548	1.232
[1], x1 = 0.8097	826.96	817.62	808.01	–	–	–	3.623	2.008	1.548
[1], x1 = 0.8903	821.89	812.56	802.98	–	–	–	4.381	2.517	1.907
[1], x1 = 0.9629	816.9	807.57	798.22	–	–	–	5.245	3.052	2.234
[1], x1 = 1	814.01	804.88	795.52	–	–	–	5.867	3.478	2.504
[2], x1 = 0.1028	–	–	–	1.4076	1.4027	1.3979	–	–	–
[2], x1 = 0.1791	–	–	–	1.4069	1.4022	1.3974	–	–	–
[2], x1 = 0.2676	–	–	–	1.4065	1.4018	1.3972	–	–	–
[2], x1 = 0.3601	–	–	–	1.4064	1.4018	1.3971	–	–	–
[2], x1 = 0.45	–	–	–	1.4066	1.402	1.3972	–	–	–
[2], x1 = 0.5402	–	–	–	1.4068	1.4022	1.3974	–	–	–
[2], x1 = 0.6295	–	–	–	1.407	1.4023	1.3976	–	–	–
[2], x1 = 0.7058	–	–	–	1.4071	1.4024	1.3977	–	–	–
[2], x1 = 0.8097	–	–	–	1.4071	1.4024	1.3977	–	–	–
[2], x1 = 0.8903	–	–	–	1.4069	1.4022	1.3975	–	–	–
[2], x1 = 0.9629	–	–	–	1.4065	1.4018	1.3972	–	–	–
[2], x1 = 1	–	–	–	1.4062	1.4015	1.3968	–	–	–
